Experiments:
Type in all cases: cell-based
[1] = system: 4T1 cells; experiment: Sensitivity of 4T1 cells to metal ions, crystal violet assay
Experimental: All metals were added as chloride salts except silver, which was added as silver nitrate (AgNO3).

[2] = in vitro; conditions: mouse
Experimental: To test this hypothesis, a control compound was generated in which the sulfur atom in the thioamide was replaced with oxygen to generate a corresponding amide (MKV3-D1). […] 20C is a graph of the relationship between tyrosinase activity and compound concentration. […] 20D is a graph of the relationship between the survival of 4T1 breast cancer cells and compound concentration in the presence or absence of 10 μM copper.
Initial structural analysis focused on the importance of the sulfur in MKV3. […] It was thought that MKV3 may provide a coordinating Cu(I) ligand as a mechanism of preventing copper movement into the channel domain. To test this hypothesis, a control compound was generated in which the sulfur atom in the thioamide was replaced with oxygen to generate a corresponding amide (MKV3-D1). […] Using another assay of ATP7A inhibition, the ability of MKV3-D1 to sensitize 4T1 breast cancer cells to copper was tested.

[3] = system: Cu^S cells complemented with ATP7B; experiment: Copper toxicity in Cu^S cells complemented with ATP7B; conditions: 10 μM, 50% cytotoxic copper concentration
Source text: 8A illustrates a copper sensitive fibroblast cell line (Cu^S) generated by deleting genes encoding ATP7A, metallothionein-I (MT-I) and metallothionein-II (MT-II). Cu^S cells cannot be propagated in regular medium (DMEM) unless a copper chelator (BCS) is supplied to the medium.
Cu^S cell lines were derived that were complemented by either ATP7A, ATP7B or MT-II.

[4] = target: T1, human ATP7A (hATP7A) (Homo sapiens, UniProt Q04656); experiment: Tyrosinase activation in B16 ATP7A^KO cells transfected with human ATP7A; conditions: 10 μM, 24 h, ATP7A^KO melanoma cells
T1 construct: expressed in transfected cells; host or cells: B16 melanoma ATP7A^KO cells (mouse), transient transfection
T1 sequence (Q04656 1-1500): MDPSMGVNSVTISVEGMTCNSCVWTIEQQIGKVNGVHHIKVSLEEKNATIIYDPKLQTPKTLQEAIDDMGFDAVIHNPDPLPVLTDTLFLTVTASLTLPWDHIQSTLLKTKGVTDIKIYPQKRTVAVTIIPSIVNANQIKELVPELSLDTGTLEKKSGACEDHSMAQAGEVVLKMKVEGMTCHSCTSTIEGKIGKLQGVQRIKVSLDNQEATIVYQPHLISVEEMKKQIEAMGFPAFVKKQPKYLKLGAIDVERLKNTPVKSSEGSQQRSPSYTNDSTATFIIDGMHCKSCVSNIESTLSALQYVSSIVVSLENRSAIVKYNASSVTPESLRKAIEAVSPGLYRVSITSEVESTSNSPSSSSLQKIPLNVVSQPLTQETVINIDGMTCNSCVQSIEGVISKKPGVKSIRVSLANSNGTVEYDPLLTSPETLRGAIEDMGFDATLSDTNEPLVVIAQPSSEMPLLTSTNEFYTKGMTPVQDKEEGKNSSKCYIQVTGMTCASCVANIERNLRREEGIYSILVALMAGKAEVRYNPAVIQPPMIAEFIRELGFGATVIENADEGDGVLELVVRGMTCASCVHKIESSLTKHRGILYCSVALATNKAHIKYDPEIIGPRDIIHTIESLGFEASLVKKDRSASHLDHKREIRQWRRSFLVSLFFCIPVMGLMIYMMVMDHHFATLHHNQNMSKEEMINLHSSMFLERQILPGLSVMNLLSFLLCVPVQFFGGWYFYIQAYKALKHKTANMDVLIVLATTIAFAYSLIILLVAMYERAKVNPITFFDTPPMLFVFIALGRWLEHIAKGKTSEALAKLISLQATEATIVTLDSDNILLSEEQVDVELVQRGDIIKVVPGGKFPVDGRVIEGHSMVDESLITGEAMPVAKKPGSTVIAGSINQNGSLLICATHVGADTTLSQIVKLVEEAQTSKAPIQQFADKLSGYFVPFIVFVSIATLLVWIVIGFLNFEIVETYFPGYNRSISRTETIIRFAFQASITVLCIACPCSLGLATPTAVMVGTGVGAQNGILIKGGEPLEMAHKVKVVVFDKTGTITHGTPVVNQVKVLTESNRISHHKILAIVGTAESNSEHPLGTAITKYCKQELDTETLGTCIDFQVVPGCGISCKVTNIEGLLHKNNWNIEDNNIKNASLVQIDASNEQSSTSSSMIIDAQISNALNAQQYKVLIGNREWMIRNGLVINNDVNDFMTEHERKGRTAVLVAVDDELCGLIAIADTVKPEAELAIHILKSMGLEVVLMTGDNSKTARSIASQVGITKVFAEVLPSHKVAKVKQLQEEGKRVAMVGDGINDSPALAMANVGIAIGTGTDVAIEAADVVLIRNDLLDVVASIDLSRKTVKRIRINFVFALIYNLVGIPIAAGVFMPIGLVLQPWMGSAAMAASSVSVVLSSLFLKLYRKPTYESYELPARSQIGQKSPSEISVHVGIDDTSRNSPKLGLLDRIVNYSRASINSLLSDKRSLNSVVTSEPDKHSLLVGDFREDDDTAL
Source text: Prior studies have shown that exogenously expressed ATP7B can activate tyrosinase in cells lacking ATP7A. For these studies, a B16 melanoma cell model was used in which tyrosinase activity can be detected by in situ oxidation of L-DOPA to DOPAchrome (10A). As shown earlier, B16 cells deleted for the ATP7A gene (ATP7A^KO) completely lack tyrosinase activity (10B). […] Quantification of tyrosinase activity in these cells is shown (10G). Data represent mean±SEM; ****p<0.0001 of three independent replicates.

## N#CC(C(=O)Nc1cccc(C(F)(F)F)c1)C(=S)Nc1ccccc1Cl (centres unmarked) [MKV3]
[1]; 10 μM MKV3, 4T1 cells
  sensitivity to copper and silver: conferred sensitivity to as little as 5 μM copper and silver
[1]; 10 μM MKV3, other metals up to 50 μM
  sensitivity to other metals: did not affect the sensitivity
[2]
  CC50: 63.1 µM
[3]
  copper toxicity: enhanced copper toxicity
[4]
  activation of tyrosinase activity by ATP7A: prevented activation of tyrosinase activity

Reference: US20250017889A1, “INHIBITORS OF P1B-TYPE ATPASES” (THE CURATORS OF THE UNIVERSITY OF MISSOURI, priority 2021, published 2025)
